Marks after values point to notes of the source that are not given here.
Experiments:
[1] = tested on: human term placentas; assay: Yield of TNC, CD34+CD45dim cells and CFU from placenta infused with cell-liberating compounds; format: cell-based; settings: infusion in PBS+, incubated 3-8 hours at 37° C., mean, N = 5; for Yield of colony-forming unit cells (CFU) obtained from placenta related to cord blood unit from the same donor: Methocult 12-14 days
Text: HSCs and HPCs of the current invention were collected from 30 human term placentas by use of different cell-liberating compounds. Following IRB approval and informed consent, human term placentas were obtained from healthy females following caesarian section. Freshly obtained human placentas, which had been subjected to a conventional cord blood recovery process by draining substantially all of the cord blood from the placenta were used. Cord blood was collected from umbilical cord using standard techniques. Placentas were first infused with an anticoagulant/vasodilator solution (Heparin 30 […] 0.05 mg/ml) at a temperature of 20° C. For infusion procedures, artery and vein of umbilical cord were further cannulated and connected to a reservoir. Pressure in the umbilical cord artery and vein was constantly measured using Baxter pressure transducers (Protocol Systems, Portland, Oreg.). Constant temperature of infusate was maintained using heat exchange unit connected to temperature-controlled water bath. Placentas was infused with 100 ml phosphate buffered saline with additives: heparin (10 […]-acetyl-cysteine (1 mM), gentamycin (0.05 mg/ml) (PBS+) (Experiment 1), or 100 ml PBS+ with 3 mg/L AMD3100 (Sigma, St. Louis, Mo.) (Experiment 2); or 100 ml PBS+ with 1 mg/ml BIO5192 (Experiment 3). BIO5192 was supplied by AnorMED (Vancouver, BC) as a sterile powder and reconstituted in pH 7.0 ethanol:propylene glycol:water (10:36:54). In Experiment 4 100 ml PBS+ with 1 mg/ml Trypsin and 0.1 mg/ml Collagenase I (Sigma, St. Louis, Mo.) was infused into the placental artery or vein. In Experiment 5 100 ml PBS+ with Etoposide (1 mM) was infused into placental vein. […] Following incubation, fluid with cells was drained out of placental vessels and umbilical vein was infused with 100 ml of PBS and later flushed out 4 times via the umbilical artery. Collected cell suspension was centrifuged for 10 min at 1000 rpm, cells at the bottom collected and reconstituted in 10 ml PBS with heparin for further analyses. The following analyses were performed on cord blood and cell suspensions obtained from placenta: number of total nucleated cells determined by flow cytometry, number of CD34^+ and CD34^+CD45^dim cells determined by immunostaining with antibodies to CD34 and CD45, flow cytometry performed using FACS Calibur flow cytometer (BD Biosciences) and FlowJo software. Amounts of colony-forming unit cells were determined by culturing cells for 12-14 days in Methocult® medium (Stem Cell Technologies, Vancouver, Canada) according to manufacturer's instruction. Data obtained from cells collected from placental circulation were normalized to same variables obtained by analyses of cord blood cells (cord blood unit) collected from the corresponding placenta and are presented as percent of cord blood unit.

[2] = target: CXCR4 (Homo sapiens, UniProt P61073); settings: in vivo; cited from earlier work
Sequence of CXCR4 (P61073 whole entry, species assumed, the tested form may be a part): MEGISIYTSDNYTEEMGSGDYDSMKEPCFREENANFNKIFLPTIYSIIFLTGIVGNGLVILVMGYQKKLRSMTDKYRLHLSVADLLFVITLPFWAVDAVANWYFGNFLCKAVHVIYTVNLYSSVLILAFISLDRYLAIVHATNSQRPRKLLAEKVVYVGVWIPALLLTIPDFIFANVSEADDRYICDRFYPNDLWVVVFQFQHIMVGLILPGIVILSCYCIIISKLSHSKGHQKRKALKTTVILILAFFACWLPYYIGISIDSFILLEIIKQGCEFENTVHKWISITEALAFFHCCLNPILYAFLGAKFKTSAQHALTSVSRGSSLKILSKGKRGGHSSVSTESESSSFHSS

[3] = tested on: human placenta; settings: 6-8 hour vascular perfusion of placenta; cited from earlier work
[4] = target: α4β1 integrin (Homo sapiens, UniProt P05556+P13612); settings: unactivated and activated forms of α4β1 integrin; cited from earlier work
[5] = target: T1, α4-subunit of the α4β1 (VLA-4) and α4β7 integrins (Homo sapiens, UniProt P13612); settings: MS patients after anti-α4 integrin antibody administration; cited from earlier work
T1 construct: host or cells: MS patients (in vivo, endogenous protein)

Compound: c1cc(CN2CCCNCCNCCCNCC2)ccc1CN1CCCNCCNCCCNCC1 [AMD3100, 1,1′-[1,4-phenylene-bis(methylene)]-bis-1,4,8,11-tetraazacyclotetradecane]
- Yield of colony-forming unit cells (CFU) obtained from placenta related to cord blood unit from the same donor [1]: 332* %
- Yield of CD34+CD45dim cells obtained from placenta related to cord blood unit from the same donor [1]: 412* %
- Yield of TNC obtained from placenta related to cord blood unit from the same donor [1]: 31%
- Mobilization of hematopoietic stem cells from the bone marrow to the bloodstream [2]: strong inducer of mobilization of hematopoietic stem cells
- Increase of yield of HSC from perfusate as compared to cord blood unit HSCs [3]: several-fold

Compound: Cc1ccccc1NC(=O)Nc1ccc(CC(=O)N(C)[C@@H](CC(C)C)C(=O)NCC[C@H](NC(=O)[C@@H]2CCCN2S(=O)(=O)c2cc(Cl)cc(Cl)c2)C(=O)O)cc1 [BIO5192]
- Yield of colony-forming unit cells (CFU) obtained from placenta related to cord blood unit from the same donor [1]: 423* %
- Yield of CD34+CD45dim cells obtained from placenta related to cord blood unit from the same donor [1]: 524* %
- Yield of TNC obtained from placenta related to cord blood unit from the same donor [1]: 24%
- Kd [4]: < 0.01 nM

Compound: COc1cc([C@@H]2c3cc4c(cc3[C@@H](O[C@@H]3O[C@@H]5CO[C@@H](C)O[C@H]5[C@H](O)[C@H]3O)[C@H]3COC(=O)[C@H]23)OCO4)cc(OC)c1O [Etoposide]
- Yield of colony-forming unit cells (CFU) obtained from placenta related to cord blood unit from the same donor [1]: 211* %
- Yield of CD34+CD45dim cells obtained from placenta related to cord blood unit from the same donor [1]: 185* %
- Yield of TNC obtained from placenta related to cord blood unit from the same donor [1]: 18%

Compound: natalizumab: recombinant humanized neutralizing IgG4 monoclonal antibody that binds the α4-subunit of α4β1 (VLA-4) and α4β7 integrins
- Circulating HSPCs [5]: rapid and sustained increase in circulating HSPCs

From patent US8574899B2, “Methods for augmentation collection of placental hematopoietic stem cells and uses thereof” (priority 2010, dated 2013)
